Results on one substance are retold here after patent US5759787A, “Kinase assay” (Tularik Inc., priority 1996, dated 1998).

One may read the Km as the concentration of substrate that gives half-maximal velocity.

The test system of this assay is PKA. Nature of the assay: Radioactive PKA kinase reaction with phosphocellulose or streptavidin capture. It is filed as biochemical. To be noted: substrate peptide. The method, then: The peptide substrates were added in 90 μl assay buffer containing 20 mM Tris-HCl pH 7.5, 2.5 mM MgCl2, and 100 μM ATP for non-radioactive detection, or 10 μM cold ATP supplemented with 0.5 μCi/well [γ-^32 P]ATP for radioactive detection, unless indicated otherwise. Freshly reconstituted PKA (1.25 ng/well in 10 μl, unless indicated otherwise) was added last and the samples were incubated for 30 minutes at room temperature. Depending on the detection method the samples were further processed as described below.
After performing a PKA kinase reaction for 30 minutes, the samples were divided into two. 50 μl were transferred into wells of streptavidin coated microtiter plates, to allow the capture of the biotinylated peptides for additional 50 minutes. The wells were washed five times with water, dried, broken into scintillation vials and counted. The other half of the reaction mixture was further incubated in the original plate for 50 minutes, then TCA was added to the reaction mixture (10% final concentration) and 30 μl was spotted onto P81 paper (1×1 inch squares). After 20 minutes the squares were washed three times with water, dried, placed into scintillation vials and counted. A microtiter plate version of the phosphocellulose capture method was also used with similar results. For src only the phosphocellulose capture method was used.

Where no end group is shown, it is not given here.

Regarding “bio-RRRVTSAARRS (not fully specified (N-terminus); printed as bio-RRRVTSAARRS) [peptide 2]”, the Km is greater than 20 µM.
